Measured values published in the NIST ThermoML archive (doi:10.1016/j.fluid.2016.03.013).
± gives the expanded uncertainty stated by the source.

Assay: xn = mol fraction of the nth substance listed
Conditions: for surface tension liquid-gas / mass density: draining crucible method; for viscosity / mass density: 101 kPa, Liquid; for viscosity: Draining crucible

[Al] [aluminum] + [Zn]
Conditions | mass density, x1 = 0.25 [kg/m3] | mass density, x1 = 0.51 [kg/m3] | mass density, x1 = 0.83 [kg/m3] | surface tension liquid-gas, x1 = 0.25 [mN/m] | surface tension liquid-gas, x1 = 0.51 [mN/m] | surface tension liquid-gas, x1 = 0.83 [mN/m] | viscosity, x1 = 0.25 [mPa·s] | viscosity, x1 = 0.51 [mPa·s] | viscosity, x1 = 0.83 [mPa·s]
873 K | 5201 ± 86 | 4204 ± 86 | – | 802.1 ± 49 | 830.8 ± 49 | – | 1.917 ± 0.095 | 1.633 ± 0.095 | –
923 K | 5139 ± 86 | 4138 ± 88 | 2720 ± 89 | 789.4 ± 49 | 819.6 ± 49 | 858.7 ± 49 | 1.791 ± 0.095 | 1.542 ± 0.094 | 1.356 ± 0.094
973 K | 5089 ± 86 | 4089 ± 88 | 2680 ± 89 | 779.3 ± 49 | 806.5 ± 49 | 848.1 ± 49 | 1.696 ± 0.095 | 1.448 ± 0.094 | 1.271 ± 0.094
1023 K | 5011 ± 86 | 3995 ± 88 | 2530 ± 90 | 763.8 ± 49 | 795.8 ± 49 | 836.9 ± 49 | 1.643 ± 0.094 | 1.405 ± 0.094 | 1.222 ± 0.094
